Nine molecules from PubChem BioAssay (NCI) can be followed below.

The structures appear in SMILES notation. Several values for one entry are separate records, joined by “and”; a condition that tells them apart may be missing. Identical values can stand only once.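 Test compounds were applied to cells in 96-well plates for 48 hours at 5 doses. At the GI50, growth is halved. Definition used: TGI = concentration required for complete inhibition of growth.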

Among the test systems are HCC-2998 colon; HL-60(TB) leukemia; HOP-92 NSCLC; HS 578T breast; IGROV1 ovarian; MDA-MB-435; NCI/ADR-RES ovarian; OVCAR-8 ovarian.
What all share (assay): growth of human tumour cells (NCI), 48 h

For `CCOP(=O)(CCN1CCN(CCCCCOc2cc3c(cc2OC)C(=O)N2CCC[C@H]2C=N3)CC1)OCC`, the GI50 with HCC-2998 colon was 17.3 µM; in the test with HL-60(TB) leukemia, 1.82 µM; in the test on HOP-92 NSCLC, 12.6 µM; in the test on HS 578T breast it was 3.54 µM; with IGROV1 ovarian it was 2.74 µM; in the test on MDA-MB-435, 3.36 µM. In addition, the GI50 was more than 100 µM in the test on NCI/ADR-RES ovarian and 31.2 µM in the test with OVCAR-8 ovarian. Besides, the TGI in the test with HCC-2998 colon was found to be 38.1 µM; with HL-60(TB) leukemia, 8.39 µM; in the test on HOP-92 NSCLC, 94.9 µM; in the test on HS 578T breast, 31.1 µM; in the test on IGROV1 ovarian it was 18.7 µM; with MDA-MB-435, 17.3 µM. Further, the TGI in the test on NCI/ADR-RES ovarian and with OVCAR-8 ovarian was more than 100 µM each time.

Consider `O=C1/C(=C\c2ccc([N+](=O)[O-])cc2)CS(=O)(=O)C/C1=C/c1ccc([N+](=O)[O-])cc1`, for which the GI50 in the test with HCC-2998 colon is 11.3 µM; with HL-60(TB) leukemia, 0.0138 µM; in the test with HOP-92 NSCLC, 0.258 µM; with HS 578T breast, 0.447 µM; in the test with IGROV1 ovarian it was 0.275 µM; in the test on MDA-MB-435, 0.208 µM. Further, the figures for the GI50 in the test on NCI/ADR-RES ovarian and with OVCAR-8 ovarian were 0.315 µM and 0.0764 µM, respectively. Moreover, the TGI was 25.6 µM in the test on HCC-2998 colon; 0.145 µM with HL-60(TB) leukemia; 0.656 µM and 6.43 µM in the test with HOP-92 NSCLC; 39.4 µM with HS 578T breast; 0.841 µM and 2.22 µM with IGROV1 ovarian; 0.808 µM and 1.5 µM with MDA-MB-435. For the same molecule, the figures for the TGI with NCI/ADR-RES ovarian and with OVCAR-8 ovarian were 3.15 µM and 0.93 µM, respectively.

Turning to `O=c1c(-c2ccc3c(c2)OCO3)coc2c(CO)c(O)ccc12`, the GI50 in the test with HCC-2998 colon is 2.01 µM; in the test on HL-60(TB) leukemia it was 2.25 µM; with HOP-92 NSCLC it was 2.02 µM; in the test with HS 578T breast it was 2.28 µM; in the test with IGROV1 ovarian, 2.01 µM; in the test with MDA-MB-435, 4.78 µM. The results for the GI50 in the test with NCI/ADR-RES ovarian and in the test on OVCAR-8 ovarian were 3.72 µM and 4.42 µM, respectively. Moreover, the TGI in the test with HCC-2998 colon worked out at 3.89 µM; in the test with HL-60(TB) leukemia, 5.9 µM; in the test with HOP-92 NSCLC, 4.86 µM; in the test with HS 578T breast, 7.12 µM; in the test with IGROV1 ovarian it was 4.93 µM; in the test on MDA-MB-435 it was 19.5 µM. The TGI came out at 21.4 µM in the test with NCI/ADR-RES ovarian and 30.5 µM in the test on OVCAR-8 ovarian.

Turning to `O=[N+]([O-])c1ccc(Oc2cccc(C(F)(F)F)c2)c([N+](=O)[O-])c1`, the GI50 was 2.3 µM in the test with HCC-2998 colon; 1.7 µM in the test on HL-60(TB) leukemia; 1.25 µM in the test with HOP-92 NSCLC; 3.99 µM in the test on HS 578T breast; 3.02 µM with IGROV1 ovarian; 1.67 µM with MDA-MB-435. The results for the GI50 in the test with NCI/ADR-RES ovarian and in the test with OVCAR-8 ovarian were 3.04 µM and 2.48 µM, respectively. Besides, the TGI in the test on HCC-2998 colon was 6.51 µM; with HL-60(TB) leukemia it was 4.65 µM; with HOP-92 NSCLC, 5.39 µM; in the test with HS 578T breast, 32 µM; in the test on IGROV1 ovarian, 14.2 µM; with MDA-MB-435, 3.93 µM. The TGI in the test on NCI/ADR-RES ovarian came to 12.1 µM; with OVCAR-8 ovarian it was 8.16 µM.

For the molecule `O=C1c2cccc3cccc(c23)C(=O)N1CC#Cc1ccc2c3c(cccc13)C(=O)N(CCN1CCNCC1)C2=O`, the GI50 is 2.1 µM with HCC-2998 colon; 4.12 µM in the test on HL-60(TB) leukemia; 4 µM with HOP-92 NSCLC; 11.2 µM with HS 578T breast; 3.2 µM in the test with IGROV1 ovarian; 1.86 µM with MDA-MB-435. The GI50 is more than 100 µM in the test on NCI/ADR-RES ovarian and 2.18 µM with OVCAR-8 ovarian. In addition, the TGI in the test on HCC-2998 colon is 4.94 µM; with HL-60(TB) leukemia it was more than 100 µM; in the test on HOP-92 NSCLC, 20.5 µM; in the test with HS 578T breast it was 33.7 µM; in the test with IGROV1 ovarian it was 13 µM; in the test with MDA-MB-435, 3.47 µM. In addition, the TGI in the test with NCI/ADR-RES ovarian was more than 100 µM; in the test on OVCAR-8 ovarian, 5.16 µM.

For the molecule `CCCCCCCCCCCCNC(=O)[C@H]1CSC(c2cc(Br)cs2)N1` (some centres undefined), the GI50 in the test with HCC-2998 colon is 2.73 µM; with HL-60(TB) leukemia, 1.01 µM; in the test on HOP-92 NSCLC, 4.61 µM; in the test with HS 578T breast it was 1.09 µM; in the test on IGROV1 ovarian it was 1 µM; in the test on MDA-MB-435, 0.665 µM. Besides, the GI50 in the test on NCI/ADR-RES ovarian was 1.11 µM; with OVCAR-8 ovarian it was 1.58 µM. The TGI in the test on HCC-2998 colon stood at 9.41 µM; in the test with HL-60(TB) leukemia it was 2.49 µM; in the test with HOP-92 NSCLC, 11.5 µM; in the test with HS 578T breast it was 2.51 µM; in the test with IGROV1 ovarian it was 2.19 µM; in the test on MDA-MB-435 it was 1.31 µM. For the same molecule, the TGI turned out to be 2.47 µM in the test on NCI/ADR-RES ovarian and 4.67 µM in the test on OVCAR-8 ovarian.

With `Cc1cc(N2CCN(C)CC2)nc(N(CCNc2ccnc3cc(Cl)ccc23)Cc2ccco2)n1`, the GI50 in the test with HCC-2998 colon is 2.65 µM; in the test with HL-60(TB) leukemia it was 2.25 µM; in the test with HOP-92 NSCLC it was 3.1 µM; with HS 578T breast, 4.42 µM; with IGROV1 ovarian, 2.91 µM; with MDA-MB-435 it was 1.62 µM. Besides, the figures for the GI50 with NCI/ADR-RES ovarian and in the test with OVCAR-8 ovarian were 3.1 µM and 5.33 µM, respectively. The TGI in the test on HCC-2998 colon worked out at 11.1 µM; in the test with HL-60(TB) leukemia, 5.97 µM; with HOP-92 NSCLC, 14.9 µM; with HS 578T breast, 35.7 µM; in the test with IGROV1 ovarian, 12.2 µM; in the test with MDA-MB-435 it was 3.39 µM. The TGI in the test on NCI/ADR-RES ovarian amounted to 14.8 µM; with OVCAR-8 ovarian it was 19.8 µM.

`Cc1cc(NS(=O)(=O)c2ccc(NC(=O)COc3ccc(-c4cc5ccccc5[nH]4)cc3)cc2)no1`: the GI50 is 2.07 µM in the test with HCC-2998 colon; 2.84 µM in the test with HL-60(TB) leukemia; 1.3 µM in the test on HOP-92 NSCLC; 1.98 µM in the test on HS 578T breast; 2.02 µM in the test with IGROV1 ovarian; 1.38 µM in the test on MDA-MB-435. For the same molecule, the GI50 with NCI/ADR-RES ovarian is 2.64 µM; in the test on OVCAR-8 ovarian, 2.01 µM. The TGI in the test on HCC-2998 colon was 4.94 µM; with HL-60(TB) leukemia, 32.6 µM; with HOP-92 NSCLC, 3.83 µM; in the test on HS 578T breast it was 4.98 µM; in the test on IGROV1 ovarian, 4.41 µM; with MDA-MB-435, 3.13 µM. Further, the TGI amounted to 9.37 µM in the test on NCI/ADR-RES ovarian and 4.77 µM with OVCAR-8 ovarian.

Turning to `NC(Cc1ccc(O)cc1)C(=O)N/N=C/c1ccc(N(CCCl)CCCl)cc1` (centres undefined), the GI50 was 24.1 µM with HCC-2998 colon; 0.0757 µM with HL-60(TB) leukemia; 21.4 µM with HOP-92 NSCLC; 32 µM with HS 578T breast; 11.5 µM with IGROV1 ovarian; 12.2 µM with MDA-MB-435. Besides, the GI50 in the test on NCI/ADR-RES ovarian is 17.3 µM; with OVCAR-8 ovarian, 5.58 µM. Further, the TGI is more than 100 µM in the test with HCC-2998 colon; 14.6 µM with HL-60(TB) leukemia; more than 100 µM in the test with HOP-92 NSCLC; more than 100 µM in the test on HS 578T breast; more than 100 µM with IGROV1 ovarian; 65.4 µM with MDA-MB-435. The TGI in the test with NCI/ADR-RES ovarian is more than 100 µM; in the test on OVCAR-8 ovarian, 55 µM.
